Laboratory results as given in patent US9174996B2, “Protein kinase inhibitors” (Astar Biotech LLC, priority 2012, dated 2015).

What was measured:
K562 cells = experiment: Cell death assay, Experiment 1 (live cells counted by trypan blue); type: cell-based; details: Homo sapiens, 100 nM, 48 hours, read-out: % live cells (vs control)

SMILES	viability at 0.1 µM (K562 cells) [%]	melting point [°C]
Cc1ccc(C(=O)Nc2ccc(CN3CCN(C)CC3)c(C(F)(F)F)c2)cc1C#Cc1cnc2cccnn12 [AP-24534, reference compound]	10.1	–
Cc1ccc(-c2nc3ccc(CN4CCN(C)CC4)cc3[nH]2)cc1C#Cc1ccc(NC2CCC2)nn1 [Compound 1, N-Cyclobutyl-6-(2-(2-methyl-5-(6-((4-methylpiperazin-1-yl)methyl)-1H-benzo[d]imidazol-2-yl)phenyl)ethynyl)pyridazin-3-amine]	–	148 to 150
Cc1ccc(-c2nc3ccc(CN4CCN(C)CC4)cc3[nH]2)cc1C#Cc1ccc(NC2CC2)nn1 [Compound 2, N-Cyclopropyl-6-(2-(2-methyl-5-(6-((4-methylpiperazin-1-yl)methyl)-1H-benzo[d]imidazol-2-yl)phenyl)ethynyl)pyridazin-3-amine]	–	145 to 146
Cc1ccc(-c2nc3ccc(CN4CCN(C)CC4)cc3[nH]2)cc1C#Cc1ccc(NC(C)C)nn1 [Compound 4, N-Isopropyl-6-(2-(2-methyl-5-(6-((4-methylpiperazin-1-yl)methyl)-1H-benzo[d]imidazol-2-yl)phenyl)ethynyl)pyridazin-3-amine]	–	129 to 130
Cc1ccc(-c2nc3ccc(CN4CCN(C)CC4)cc3[nH]2)cc1C#Cc1cnc(NC2CC2)nc1 [Compound 5, N-Cyclopropyl-5-(2-(2-methyl-5-(6-((4-methylpiperazin-1-yl)methyl)-1H-benzo[d]imidazol-2-yl)phenyl)ethynyl)pyrimidin-2-amine]	10.8	136 to 137
CN1CCN(Cc2ccc3nc(-c4ccc(Cl)c(C#Cc5cnc6cccnn56)c4)[nH]c3c2)CC1 [Compound 6, 3-(2-(2-Chloro-5-(6-((4-methylpiperazin-1-yl)methyl)-1H-benzo[d]imidazol-2-yl)phenyl)ethynyl)imidazo[1,2-b]pyridazine]	10.1	156 to 157
CN1CCN(Cc2ccc3nc(-c4ccc(Cl)c(C#Cc5ccc(NC6CC6)nn5)c4)[nH]c3c2)CC1 [Compound 7, 6-(2-(2-Chloro-5-(6-((4-methylpiperazin-1-yl)methyl)-1H-benzo[d]imidazol-2-yl)phenyl)ethynyl)-N-cyclopropylpyridazin-3-amine]	–	130 to 131
CN1CCN(Cc2ccc3nc(-c4ccc(Cl)c(C#Cc5ccc(NC6CCC6)nn5)c4)[nH]c3c2)CC1 [Compound 8, 6-(2-(2-Chloro-5-(6-((4-methylpiperazin-1-yl)methyl)-1H-benzo[d]imidazol-2-yl)phenyl)ethynyl)-N-cyclobutylpyridazin-3-amine]	–	161 to 163
CC(C)Nc1ccc(C#Cc2cc(-c3nc4ccc(CN5CCN(C)CC5)cc4[nH]3)ccc2Cl)nn1 [Compound 9, 6-(2-(2-Chloro-5-(6-((4-methylpiperazin-1-yl)methyl)-1H-benzo[d]imidazol-2-yl)phenyl)ethynyl)-N-isopropylpyridazin-3-amine]	–	127 to 128
CN1CCN(Cc2ccc3nc(-c4ccc(Cl)c(C#Cc5cnc(NC6CC6)nc5)c4)[nH]c3c2)CC1 [Compound 10, 5-(2-(2-Chloro-5-(6-((4-methylpiperazin-1-yl)methyl)-1H-benzo[d]imidazol-2-yl)phenyl)ethynyl)-N-cyclopropylpyrimidin-2-amine]	11	160 to 162
Cc1cn(-c2ccc3nc(-c4ccc(C)c(C#Cc5cnc6cccnn56)c4)[nH]c3c2)cn1 [Compound 11, 3-(2-(2-Methyl-5-(6-(4-methyl-1H-imidazol-1-yl)-1H-benzo[d]imidazol-2-yl)phenyl)ethynyl)imidazo[1,2-b]pyridazine]	–	182 to 184
Cc1ccc(C(=O)Nc2ccc(CN3CCN(C)CC3)c(C(F)(F)F)c2)cc1C#Cc1ccc(NC(C)C)nn1 [Compound 14, 3-(2-(6-(Isopropylamino)pyridazin-3-yl)ethynyl)-4-methyl-N-(4-((4-methylpiperazin-1-yl)methyl)-3-(trifluoromethyl)phenyl)benzamide]	8.37	67 to 68
CN1CCN(Cc2ccc(NC(=O)c3ccc(Cl)c(C#Cc4ccc(NC5CC5)nn4)c3)cc2C(F)(F)F)CC1 [Compound 15, 4-Chloro-3-(2-(6-(cyclopropylamino)pyridazin-3-yl)ethynyl)-N-(4-((4-methylpiperazin-1-yl)methyl)-3-(trifluoromethyl)phenyl)benzamide]	17	133 to 134
CN1CCN(Cc2ccc(NC(=O)c3ccc(Cl)c(C#Cc4ccc(NC5CCC5)nn4)c3)cc2C(F)(F)F)CC1 [Compound 16, 4-Chloro-3-(2-(6-(cyclobutylamino)pyridazin-3-yl)ethynyl)-N-(4-((4-methylpiperazin-1-yl)methyl)-3-(trifluoromethyl)phenyl)benzamide]	8.46	132 to 133
CC(C)Nc1ccc(C#Cc2cc(C(=O)Nc3ccc(CN4CCN(C)CC4)c(C(F)(F)F)c3)ccc2Cl)nn1 [Compound 17]	18.3	133 to 134
Cc1cn(-c2ccc(NC(=O)c3ccc(C)c(C#Cc4ccc(NC5CC5)nn4)c3)cc2C(F)(F)F)cn1 [Compound 18, 3-(2-(6-(Cyclopropylamino)pyridazin-3-yl)ethynyl)-4-methyl-N-(4-(4-methyl-1H-imidazol-1-yl)-3-(trifluoromethyl)phenyl)benzamide]	–	125 to 126
Cc1cn(-c2ccc(NC(=O)c3ccc(C)c(C#Cc4ccc(NC(C)C)nn4)c3)cc2C(F)(F)F)cn1 [Compound 19, 3-(2-(6-(Isopropylamino)pyridazin-3-yl)ethynyl)-4-methyl-N-(4-(4-methyl-1H-imidazol-1-yl)-3-(trifluoromethyl)phenyl)benzamide]	–	141 to 143
Cc1cn(-c2ccc(NC(=O)c3ccc(Cl)c(C#Cc4ccc(NC5CC5)nn4)c3)cc2C(F)(F)F)cn1 [Compound 20, 4-Chloro-3-(2-(6-(cyclopropylamino)pyridazin-3-yl)ethynyl)-N-(4-(4-methyl-1H-imidazol-1-yl)-3-(trifluoromethyl)phenyl)benzamide]	–	150 to 152
Cc1cn(-c2ccc(NC(=O)c3ccc(Cl)c(C#Cc4ccc(NC5CCC5)nn4)c3)cc2C(F)(F)F)cn1 [Compound 21, 4-Chloro-3-(2-(6-(cyclobutylamino)pyridazin-3-yl)ethynyl)-N-(4-(4-methyl-1H-imidazol-1-yl)-3-(trifluoromethyl)phenyl)benzamide]	–	153 to 155
Cc1cn(-c2ccc(NC(=O)c3ccc(Cl)c(C#Cc4ccc(NC(C)C)nn4)c3)cc2C(F)(F)F)cn1 [Compound 22]	–	133 to 135
Cc1cn(-c2cc(NC(=O)c3ccc(C)c(C#Cc4ccc(NC5CCC5)nn4)c3)cc(C(F)(F)F)c2)cn1 [Compound 24, 3-(2-(6-(Cyclobutylamino)pyridazin-3-yl)ethynyl)-4-methyl-N-(3-(4-methyl-1H-imidazol-1-yl)-5-(trifluoromethyl)phenyl)benzamide]	16.4	223 to 225
Cc1cn(-c2cc(NC(=O)c3ccc(C)c(C#Cc4ccc(NC(C)C)nn4)c3)cc(C(F)(F)F)c2)cn1 [Compound 25, 3-(2-(6-(Isopropylamino)pyridazin-3-yl)ethynyl)-4-methyl-N-(3-(4-methyl-1H-imidazol-1-yl)-5-(trifluoromethyl)phenyl)benzamide]	–	192 to 194
Cc1cn(-c2cc(NC(=O)c3ccc(Cl)c(C#Cc4ccc(NC5CC5)nn4)c3)cc(C(F)(F)F)c2)cn1 [Compound 26, 4-Chloro-3-(2-(6-(cyclopropylamino)pyridazin-3-yl)ethynyl)-N-(3-(4-methyl-1H-imidazol-1-yl)-5-(trifluoromethyl)phenyl)benzamide]	18.3	213 to 215
Cc1cn(-c2cc(NC(=O)c3ccc(Cl)c(C#Cc4ccc(NC5CCC5)nn4)c3)cc(C(F)(F)F)c2)cn1 [Compound 27, 4-Chloro-3-(2-(6-(cyclobutylamino)pyridazin-3-yl)ethynyl)-N-(3-(4-methyl-1H-imidazol-1-yl)-5-(trifluoromethyl)phenyl)benzamide]	–	225 to 227
Cc1cn(-c2ccc(NC(=O)c3ccc(C)c(C#Cc4cnc(NC5CC5)nc4)c3)cc2C(F)(F)F)cn1 [Compound 28, 3-(2-(2-(Cyclopropylamino)pyrimidin-5-yl)ethynyl)-4-methyl-N-(4-(4-methyl-1H-imidazol-1-yl)-3-(trifluoromethyl)phenyl)benzamide]	12.7	131 to 133
Cc1cn(-c2ccc(NC(=O)c3ccc(Cl)c(C#Cc4cnc(NC5CC5)nc4)c3)cc2C(F)(F)F)cn1 [Compound 29, 4-Chloro-3-(2-(2-(cyclopropylamino)pyrimidin-5-yl)ethynyl)-N-(4-(4-methyl-1H-imidazol-1-yl)-3-(trifluoromethyl)phenyl)benzamide]	5.87	141 to 143
Cc1cn(-c2ccc(NC(=O)c3ccc(Cl)c(C#Cc4cnc5cccnn45)c3)cc2C(F)(F)F)cn1 [Compound 31, 4-Chloro-3-(2-(imidazo[1,2-b]pyridazin-3-yl)ethynyl)-N-(4-(4-methyl-1H-imidazol-1-yl)-3-(trifluoromethyl)phenyl)benzamide]	14.4	153 to 155
Cc1cn(-c2cc(NC(=O)c3ccc(Cl)c(C#Cc4cnc5cccnn45)c3)cc(C(F)(F)F)c2)cn1 [Compound 32, 4-Chloro-3-(2-(imidazo[1,2-b]pyridazin-3-yl)ethynyl)-N-(3-(4-methyl-1H-imidazol-1-yl)-5-(trifluoromethyl)phenyl)benzamide]	9.57	153 to 154
Cc1cn(-c2cc(NC(=O)c3ccc(Cl)c(C#Cc4cnc(NC5CC5)nc4)c3)cc(C(F)(F)F)c2)cn1 [Compound 33, 4-Chloro-3-(2-(2-(cyclopropylamino)pyrimidin-5-yl)ethynyl)-N-(3-(4-methyl-1H-imidazol-1-yl)-5-(trifluoromethyl)phenyl)benzamide]	7.97	163 to 165
